# Test results taken from US10233195B2, “Anti-fibrotic pyridinones” (InterMune, Inc., priority 2014, dated 2019).
# Tested on: TGF-b induced Endothelin-1 production
# Assay: ET-1 assay: inhibitory effect on TGF-b induced endothelin-1 production
# Format: cell-based
# Conditions: Homo sapiens, Fibroblast; fibroblasts, stimulant (TGFb, serum, LPA etc), ET-1 in media by ELISA, 4-parameter fit
# Procedure, shortened: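 Fibroblasts (primary human lung/dermal, HFL-1, 3T3) serum-starved 0-48 h, preincubated ~30 min with compound, then stimulated (TGFb, serum or LPA) for 16-48 h. Secreted ET-1 measured by ELISA; EC50 from 4-parameter logistic fit, with CC50 from ATPlite in the same wells.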
row,Compound,EC50
1,CCOc1ccc(-n2cc(-c3ccc4ocnc4c3)c(C)cc2=O)c(C)c1 [Compound 420],50 to 200 µM
2,Cc1cc(=O)n(-c2ccc(Cl)cc2)cc1-c1ccc2scnc2c1 [Compound 421],50 to 200 µM
3,Cc1cc(=O)n(-c2ccc(Cl)cc2)cc1-c1ccc2ocnc2c1 [Compound 422],> 200 µM
4,Cc1cc(=O)n(-c2ccc(OC(F)(F)F)cc2)cc1-c1cccc2c1OCC(=O)N2 [Compound 423],> 200 µM
5,Cc1cc(=O)n(-c2ccc(OC(F)(F)F)cc2)cc1-c1cccc2c1NC(=O)CO2 [Compound 426],> 200 µM
6,Cc1cc(=O)n(-c2ccc(OC(F)(F)F)cc2)cc1-c1cccc2c1N(C)C(=O)CO2 [Compound 427],> 200 µM
7,Cc1cc(=O)n(-c2ccc(OC(F)(F)F)cc2)cc1-c1ccc2[nH]c(=O)oc2c1 [Compound 429],> 200 µM
8,CCOc1ccc(-n2cc(-c3ccc(F)cc3)ccc2=O)c(C)c1 [Compound 438],> 200 µM
9,Cc1ccccc1-n1cc(-c2cnn(C)c2)ccc1=O [Compound 439],> 200 µM
10,Cc1ccc(F)c(-c2ccccc2)c1 [Compound 440],> 200 µM
11,Cc1cc(=O)n(-c2ccc(OC(F)(F)F)cc2C)cc1-c1cnn(C)c1 [Compound 442],> 200 µM
12,Cn1cc(-c2cn(-c3ccc(OC(F)(F)F)cc3)c(=O)cc2NCc2ccc(C#N)cc2)cn1 [Compound 526],> 200 µM
13,Cn1cc(-c2cn(-c3ccc(OC(F)(F)F)cc3)c(=O)cc2NCc2ccc(C#N)cc2F)cn1 [Compound 527],< 50 µM
14,CCOc1ccc(CNc2cc(=O)n(-c3ccc(OC(F)(F)F)cc3)cc2-c2cnn(C)c2)c(F)c1 [Compound 528],< 50 µM
15,Cn1cc(-c2cn(-c3ccc(OC(F)(F)F)cc3)c(=O)cc2NCc2ncccn2)cn1 [Compound 529],> 200 µM
16,CCOc1ccc(CNc2cc(=O)n(-c3ccc(OC(F)(F)F)cc3)cc2-c2cnn(C)c2)cc1 [Compound 530],< 50 µM
17,Cn1cc(-c2cn(-c3ccc(F)cc3)c(=O)cc2Oc2ccccc2)cn1 [Compound 532],< 50 µM
18,COCCOc1ccc(Oc2cc(=O)n(-c3ccc(OC(F)(F)F)cc3)cc2-c2cnn(C)c2)cc1 [Compound 533],50 to 200 µM
19,Cn1cc(-c2cn(-c3ccc(Cl)cc3)c(=O)cc2Oc2ccccc2)cn1 [Compound 534],< 50 µM
20,CC(=O)Nc1cccc(-n2cc(-c3ccc(F)cc3)c(Oc3ccccc3)cc2=O)c1 [Compound 536],< 50 µM
21,Cn1cc(-c2cn(-c3cccc(NC(N)=O)c3)c(=O)cc2Oc2ccccc2)cn1 [Compound 537],< 50 µM

row,Compound,EC50
1,COCCOc1ccc(-n2cc(-c3cnn(C)c3)c(Oc3ccccc3)cc2=O)cc1 [Compound 540],< 50 µM
2,CCOc1ccc(-n2cc(-c3ccc(F)cc3)c(Cl)cc2=O)c(C)c1 [Compound 541],> 200 µM
3,Cn1cc(-c2cn(-c3ccc(O)cc3)c(=O)cc2Oc2ccccc2)cn1 [Compound 545],> 200 µM
4,O=c1cc(NCc2ncccn2)ccn1-c1ccc(OC(F)(F)F)cc1 [Compound 546],> 200 µM
5,CCOc1ccc(-n2cc(-c3ccc4scnc4c3)c(C)cc2=O)c(C)c1 [Compound 552],> 200 µM
6,CCn1c(=O)oc2ccc(-c3cn(-c4ccc(OC(F)(F)F)cc4)c(=O)cc3C)cc21 [Compound 554],> 200 µM
7,Cc1cc(=O)n(-c2ccc(OC(F)(F)F)cc2)cc1-c1cccc2[nH]c(=O)oc12 [Compound 555],> 200 µM
8,CCn1c(=O)oc2c(-c3cn(-c4ccc(OC(F)(F)F)cc4)c(=O)cc3C)cccc21 [Compound 556],> 200 µM
9,Cc1cc(=O)n(-c2ccc(OC(F)(F)F)cc2)cc1-c1ccc2c(c1)oc(=O)n2CCO [Compound 558],50 to 200 µM
10,Cc1cc(=O)n(-c2ccc(F)c(NC(N)=O)c2)cc1-c1ccc(F)cc1 [Compound 559],< 50 µM
11,Cc1cc(=O)n(-c2ccc(OC(F)(F)F)cc2)cc1-c1ccc2c(c1)OCC(=O)N2CCO [Compound 566],> 200 µM
12,Cc1nc2c(=O)n(-c3ccc(OC(F)(F)F)cc3)cc(-c3ccc(F)cc3)c2o1 [Compound 568],> 200 µM
13,N#Cc1ccc(-n2cc(-c3cn[nH]c3)c3nccnc3c2=O)cc1 [Compound 573],> 200 µM
14,O=c1c2nccnc2c(-c2cnn(CCO)c2)cn1-c1ccc(OC(F)(F)F)cc1 [Compound 577],50 to 200 µM
15,O=c1c2cccnc2c(-c2cn[nH]c2)cn1-c1ccc(OC(F)(F)F)cc1 [Compound 579],> 200 µM
16,CCOc1ccc(-n2cc(-c3cn[nH]c3)c3ncccc3c2=O)c(C)c1 [Compound 580],< 50 µM
17,N#Cc1ccc(-n2cc(-c3cn[nH]c3)c3ncccc3c2=O)cc1 [Compound 581],> 200 µM
18,O=c1c2scnc2c(-c2cn[nH]c2)cn1-c1ccc(OC(F)(F)F)cc1 [Compound 582],< 50 µM
19,Cc1nc2c(-c3cnn(Cc4ccccc4)c3)cn(-c3ccc(OC(F)(F)F)cc3)c(=O)c2s1 [Compound 586],< 50 µM
20,Cc1nc2c(-c3cn[nH]c3)cn(-c3ccc(OC(F)(F)F)cc3)c(=O)c2s1 [Compound 587],< 50 µM
21,CCn1ccc2c(-c3cn[nH]c3)cn(-c3ccc(OC(F)(F)F)cc3)c(=O)c21 [Compound 593],< 50 µM

row,Compound,EC50
1,Cn1cc(-c2cn(-c3ccc(OC(F)(F)F)cc3)c(=O)c3c2ccn3Cc2ccccc2)cn1 [Compound 596],< 50 µM
2,Cn1cc(-c2cn(-c3ccc(C#N)cc3)c(=O)c3c2ccn3C)cn1 [Compound 597],> 200 µM
3,Cn1ccc2c(-c3cn[nH]c3)cn(-c3ccc(Cl)cc3)c(=O)c21 [Compound 598],< 50 µM
4,Cn1cc(-c2cn(-c3ccc(Cl)cc3)c(=O)c3c2ccn3C)cn1 [Compound 599],< 50 µM
5,N#Cc1ccc(-n2cc(-c3cn[nH]c3)c3cc[nH]c3c2=O)cc1 [Compound 608],50 to 200 µM
6,CCn1ccc2c(-c3cnn(C)c3)c[nH]c(=O)c21 [Compound 611],< 50 µM
7,Cn1cc(-c2c[nH]c(=O)c3[nH]ccc23)cn1 [Compound 612],< 50 µM
8,Cn1cc(-c2cn(-c3ccc(OC(F)(F)F)cc3)c(=O)c3c2ccn3CCO)cn1 [Compound 614],< 50 µM
9,CCn1nnc2c(=O)[nH]cc(-c3cnn(C)c3)c21 [Compound 622],> 200 µM
10,Cn1cc(-c2c[nH]c(=O)c3[nH]nnc23)cn1 [Compound 623],> 200 µM
11,Cc1cc(=O)n(-c2cccc(NC(N)=O)c2)cc1-c1cnn(C)c1 [Compound 628],< 50 µM
12,CCn1nnc2c(-c3cn[nH]c3)cn(-c3ccc(OC(F)(F)F)cc3)c(=O)c21 [Compound 634],< 50 µM
13,O=c1c(-c2ccc(F)cc2)c(-c2ccc(OC(F)(F)F)cc2)c1=O [Compound 666],< 50 µM
14,CCOc1ccc(-c2c(-c3ccc(F)cc3)c(=O)c2=O)c(C)c1 [Compound 667],< 50 µM
15,CCn1cnc2c(-c3cn[nH]c3)cn(-c3ccc(OC(F)(F)F)cc3)c(=O)c21 [Compound 669],< 50 µM
16,CCn1cc(-c2cn(-c3ccc(OC(F)(F)F)cc3)c(=O)c3c2ncn3CC)cn1 [Compound 670],< 50 µM
17,CCn1cnc2c(-c3cnn(C(C)C)c3)cn(-c3ccc(OC(F)(F)F)cc3)c(=O)c21 [Compound 671],< 50 µM
18,O=c1c2[nH]cnc2c(-c2cn[nH]c2)cn1-c1ccc(OC(F)(F)F)cc1 [Compound 672],< 50 µM
19,CC(C)n1cc(-c2cn(-c3ccc(OC(F)(F)F)cc3)c(=O)c3c2ncn3C)cn1 [Compound 673],< 50 µM
20,Cc1nc2c(=O)n(-c3ccc(OC(F)(F)F)cc3)cc(-c3cnn(C)c3)c2n1C [Compound 674],50 to 200 µM
21,Cc1nc2c(=O)n(-c3ccc(OC(F)(F)F)cc3)cc(-c3cn[nH]c3)c2n1C [Compound 675],< 50 µM

row,Compound,EC50
1,CC(C)n1nnc2c(-c3cnn(C)c3)cn(-c3ccc(OC(F)(F)F)cc3)c(=O)c21 [Compound 676],< 50 µM
2,O=c1c2[nH]nnc2c(-c2cn[nH]c2)cn1-c1ccc(OC(F)(F)F)cc1 [Compound 678],50 to 200 µM
3,Cn1cc(-c2cn(-c3ccc(OC(F)(F)F)cc3)c(=O)c3nn(CCF)nc23)cn1 [Compound 679],< 50 µM
4,CCn1nc2c(-c3ccc(F)cc3)cn(-c3ccc(OC(F)(F)F)cc3)c(=O)c2n1 [Compound 680],> 200 µM
5,Cn1cc(-c2cn(-c3ccc(OC(F)(F)F)cc3)c(=O)c3c2CCN3C(=O)OC(C)(C)C)cn1 [Compound 690],< 50 µM
6,CCOCCn1ccc2c(-c3cn[nH]c3)cn(-c3ccc(OC(F)(F)F)cc3)c(=O)c21 [Compound 691],< 50 µM
7,CC(C)OCCn1ccc2c(-c3cn[nH]c3)cn(-c3ccc(OC(F)(F)F)cc3)c(=O)c21 [Compound 692],< 50 µM
8,CC(=O)N1CCc2c(-c3cnn(C)c3)cn(-c3ccc(OC(F)(F)F)cc3)c(=O)c21 [Compound 693],50 to 200 µM
9,CCn1ccc2c(=O)n(-c3ccc(OC(F)(F)F)cc3)cc(-c3cnn(C)c3)c21 [Compound 694],< 50 µM
10,Cn1cc(-c2cn(-c3ccc(OC(F)(F)F)cc3)c(=O)c3cc[nH]c23)cn1 [Compound 695],< 50 µM
11,CCOc1ccc(-n2cc(-c3cnn(C)c3)c(OCCOC(C)C)cc2=O)c(C)c1 [Compound 696],50 to 200 µM
12,CCOc1ccc(-n2cc(-c3cnn(C)c3)c(OCCOCCOC)cc2=O)c(C)c1 [Compound 697],50 to 200 µM
13,CCOc1ccc(-n2cc(-c3cnn(C)c3)c(OC3CCOCC3)cc2=O)c(C)c1 [Compound 698],50 to 200 µM
14,CCOc1ccc(-n2cc(-c3cnn(C)c3)c(NCc3ccccn3)cc2=O)c(C)c1 [Compound 699],50 to 200 µM
15,CCOc1ccc(-n2cc(-c3cnn(C)c3)c(NCc3ccncc3)cc2=O)c(C)c1 [Compound 700],50 to 200 µM
16,CCOc1ccc(-n2cc(-c3cnn(C)c3)c(NCc3cccnc3)cc2=O)c(C)c1 [Compound 701],< 50 µM
17,CCOc1ccc(-n2cc(-c3cnn(C)c3)c(NCc3ccc(F)cc3F)cc2=O)c(C)c1 [Compound 702],< 50 µM
18,CCOc1ccc(-n2cc(-c3cnn(C)c3)c(NCc3cc(F)cc(F)c3)cc2=O)c(C)c1 [Compound 703],< 50 µM
